Results as given in patent US5885990A, “Substituted amidinonaphthyl ester derivative” (Torii Pharmaceutical Co., Ltd., priority 1995, dated 1999).
Counter-ions that a name gives are not always drawn.

Assays:
[1] = test system: pulmonary thrombosis of mouse models (thrombin-induced); assay: Preventive effect on death due to pulmonary thrombosis of mouse models; type: in vivo; design: key: ratio of survival rate to positive control group's survival rate; conditions: ddy male mice, 10 mg/kg oral; thrombin 10 units/mouse via caudal vein after 6 hours; survival rate 16 hours after thrombin, as ratio to survival rate of positive control Sepimostat mesilate
Description: (1) Preventive effect on death due to pulmonary thrombosis of mouse models:
For experiment, ddy male mice after a fast of 6 hours were used and 10 mg/kg of the present compound was orally administered. […] After lapse of 6 hours, 10 units/mouse of thrombin was administered to the mice through caudal vein to cause thrombosis for the mice. After 16 hours from thrombin-induction, mortality was checked and the preventive effect on death (survival rate) was indicated by the ratio to the survival rate of the positive control group.

[2] = test system: blood plasmin like activity; assay: Determination of blood plasmin like activity using synthetic substrate (plasma after oral dosing); type: in vivo, rat; conditions: SD male rats, 100 mg/kg oral, substrate Boc-Val-Leu-Lys-MCA, pH 8.5, 37° C., 30 minutes, Water control 0.07
Description: (2) Test of determination of blood plasmin like activity using synthetic substrate:
For the test, SD male rats (8 weeks old) after fasted overnight were used, and 100 mg/kg of the present compound was orally administered to the rats, and blood was drawn, with time, from the descending aorta as citrate-containing blood and subjected to centrifugation to obtain plasma. Water was orally administered to the rats of control group and plasma was similarly obtained.
To the plasma obtained were added 0.1M borate buffer solution (pH 8.5) and Boc-Val-Leu-Lys-MCA and incubation was conducted at 37° C. for 30 minutes.

[3] = test system: plasminogen activator inhibitor (PAI-1); assay: Measurement of plasminogen activator inhibitor (PAI-1) antigen quantity in plasma; type: in vivo, rat; conditions: SD male rats, 100 mg/kg oral; plasma of Test (2); ELISA; Water control 54.2
Description: (3) Test of measurement of plasminogen activator inhibitor (PAI-1) antigen quantity:
Measurement of PAI-1 antigen quantity was conducted using the plasma obtained in the above Test (2).
Previously, 100 μl of a diluted 10 mM carbonate buffered solution of monoclonal antibody to PAI-1 was put in each well of a 96-well micro-titer plate and left to stand for 16 hours at 4° C., followed by washing, four times, with 10 mM phosphate buffer solution containing 0.1% Tween 20 and adding a standard solution and the plasma sample. After leaving for 2 hours at room temperature and washing again four times, 100 μl of an enzyme-labelled PAI-1 polyclonal antibody was added to carry out reaction at room temperature for 2 hours. After excess antibody was washed, 100 μl of citric acid buffer solution containing 10 mg of o-phenylenediamine and 0.1% hydrogen peroxide was added, followed by leaving it for 30 minutes at 30° C. to cause color formation. After the reaction was terminated by the addition of 50 μl of 2N sulfuric acid, absorbance at 405 nm was measured by a micro-plate reader to determine the PAI-1 antigen quantity in the plasma sample.

## N=C(N)c1ccc2c(CC(N)=O)c(OC(=O)c3ccc(NC4=NCCN4)cc3)ccc2c1 [Example 1, 6-amidino-1-carbamoylmethyl-2-naphthyl 4-[(4,5-dihydro-1H-imidazol-2-yl)amino]-benzoate.dihydrochloride]
[1]
  Preventive effect on death: 1.16
[2]
  Plasmin like activity: 0.37 nmol/min/mL
[3]
  PAI-1 antigen quantity: 28.5 ng/mL

## CC(=O)NCCN=CNCNc1ccc(C(=O)Oc2ccc3cc(C(=N)N)ccc3c2CC(N)=O)cc1.Cl.Cl [Example 3, 6-amidino-1-carbamoylmethyl-2-naphthyl 4-[(2-acetylaminoethyl)iminomethylaminomethylamino]benzoate.dihydrochloride]
[1]
  Preventive effect on death: 1.09

## N=C(N)c1ccc2c(CCC(N)=O)c(OC(=O)c3ccc(NC4=NCCN4)cc3)ccc2c1 [Example 5, 6-amidino-1-(2-carbamoylethyl)-2-naphthyl 4-[(4,5-dihydro-1H-imidazol-2-yl)amino]-benzoate.dihydrochloride]
[1]
  Preventive effect on death: 1.00

## N=C(NCCO)Nc1ccc(C(=O)Oc2ccc3cc(C(=N)N)ccc3c2CC(N)=O)cc1 [Example 7, 6-amidino-1-carbamoylmethyl-2-naphthyl 4-[(2-hydroxyethyl)aminoiminomethylamino]-benzoate.dihydrochloride]
[1]
  Preventive effect on death: 1.05
[2]
  Plasmin like activity: 0.62 nmol/min/mL

## N=C(N)c1ccc2c(CC(N)=O)c(OC(=O)c3ccc([N+](=O)[O-])cc3)ccc2c1 [Example 11, 6-amidino-1-carbamoylmethyl-2-naphthyl 4-nitrobenzoate.hydrochloride]
[1]
  Preventive effect on death: 1.12

## N=C(N)c1ccc2c(CC(N)=O)c(OC(=O)c3ccc(N)cc3)ccc2c1 [Example 12, 6-amidino-1-carbamoylmethyl-2-naphthyl 4-aminobenzoate.dihydrochloride]
[1]
  Preventive effect on death: 1.05

## CN(C)c1ccc(C(=O)Oc2ccc3cc(C(=N)N)ccc3c2CC(N)=O)cc1 [Example 15, 6-amidino-1-carbamoylmethyl-2-naphthyl 4-dimethylaminobenzoate.dihydrochloride]
[1]
  Preventive effect on death: 1.05

## CN(C)CCNC(=N)Nc1ccc(C(=O)Oc2ccc3cc(C(=N)N)ccc3c2CC(N)=O)cc1 [Example 17, 6-amidino-1-carbamoylmethyl-2-naphthyl 4-[(2-dimethylaminoethyl)aminoiminomethylamino]benzoate.trihydrochloride]
[2]
  Plasmin like activity: 0.62 nmol/min/mL

## N=C(NCCN1CCCC1)Nc1ccc(C(=O)Oc2ccc3cc(C(=N)N)ccc3c2CC(N)=O)cc1 [Example 24]
[2]
  Plasmin like activity: 0.55 nmol/min/mL

## CNC(=N)Nc1ccc(C(=O)Oc2ccc3cc(C(=N)N)ccc3c2CC(N)=O)cc1 [Example 26, 6-amidino-1-carbamoylmethyl-2-naphthyl 4-methylaminoiminomethylaminobenzoate.dihydrochloride]
[2]
  Plasmin like activity: 0.60 nmol/min/mL

## CN=C(NC)Nc1ccc(C(=O)Oc2ccc3cc(C(=N)N)ccc3c2CC(N)=O)cc1 [Example 27, 6-amidino-1-carbamoylmethyl-2-naphthyl 4-methylaminomethyliminomethylaminobenzoate.dihydrochloride]
[2]
  Plasmin like activity: 0.52 nmol/min/mL

## N=C(N)c1ccc2c(CC(N)=O)c(OC(=O)c3ccc(NC4=NCCS4)cc3)ccc2c1 [Example 31, 6-amidino-1-carbamoylmethyl-2-naphthyl 4-[(4,5-dihydrothiazol-2-yl)amino]-benzoate.dihydrochloride]
[1]
  Preventive effect on death: 1.00

## COC(=O)Cc1c(OC(=O)c2ccc(NC3=NCCN3)cc2)ccc2cc(C(=N)N)ccc12 [Example 39, 6-amidino-1-methoxycarbonylmethyl-2-naphthyl 4-[(4,5-dihydro-1H-imidazol-2-yl)amino]benzoate.dimethanesulfonate]
[1]
  Preventive effect on death: 1.19
[2]
  Plasmin like activity: 0.58 nmol/min/mL

## Cl.Cl.N=C(N)Nc1ccc(C(=O)Oc2ccc3cc(C(=N)N)ccc3c2C=CC(N)=O)cc1 [Example 46, 6-amidino-1-(2-carbamoylvinyl)-2-naphthyl 4-aminoiminomethylaminobenzoate.dihydrochloride]
[2]
  Plasmin like activity: 0.63 nmol/min/mL

## CN(C)C(=O)COC(=O)c1c(OC(=O)c2ccc(NC3=NCCN3)cc2)ccc2cc(C(=N)N)ccc12 [Example 48, 6-amidino-1-dimethylcarbamoylmethoxycarbonyl-2-naphthyl 4-[(4,5-dihydro-1H-imidazol-2-yl)amino]benzoate.dihydrochloride]
[1]
  Preventive effect on death: 0.96
